Measurements: US12329967B2, “State-dependent peripheral neuromodulation to treat bladder dysfunction” (Duke University, priority 2015, dated 2025)

Test system: bladder
Assay: in vivo cystometry (CMG) in urethane anesthetized rats, PGE2 model of bladder dysfunction
Design: species or system female Wistar rats
Settings: intravesical infusion of PGE2 (100 μM), no stimulation, vs control rats (FIG. 5A)
Protocol: In the following examples, an accepted animal model of bladder dysfunction was used: the PGE2 (prostoglandin E2) model, in which installation of PGE2 into rats induces a hyperactive bladder response. In addition, a cat model of bladder dysfunction was used. […] Acute experiments were conducted in urethane (1.2 g/kg, SC) anesthetized female Wistar rats using in vivo cystometry (CMG). A PE-90 catheter was placed to measure bladder pressure and for intravesical infusion of saline and PGE2 (100 μM). Bipolar electrodes were placed on the external urethral sphincter (EUS) to measure electromyographic (EMG) activity and a bipolar nerve cuff electrode was placed on the sensory branch of the pudendal nerve for stimulation. In a subset of trials after PGE2 infusion, electrical stimulation of the sensory branch of the pudendal nerve was delivered at different amplitudes (0.5-10× EUS reflex threshold, T) and frequencies (1-50 Hz). T may be determined as follows: a low frequency electrical signal, typically 1 Hz, is applied and the intensity of stimulation is increased (either by increasing the voltage or the current of the signal, preferably the current) until the pudendal nerve stimulation pulse produces a reflex EMG response in the EUS.

CCCCC[C@H](O)/C=C/[C@H]1[C@H](O)CC(=O)[C@@H]1C/C=C\CCCC(=O)O [PGE2, prostoglandin E2]
changes in bladder capacity: reduces bladder capacity
